Test results from patent US6610309B2, “Therapeutic composition comprising an antigen or an in vivo generator of a compound comprising an amino acid sequence” (Societe d'Exploitation de Produits pour les Industries …, priority 1995, dated 2003).
Where two headings read alike, the source gives them in different places.

Assays:
total IgG and total IgG1 = experiment: Humoral response, comparison of calcium salts (Example 4); type: in vivo, OF1 mice; conditions: 0.5 mg of calcium salt, 50 μg antigen, 100 μl s.c.; injection repeated on D28; antibodies assayed on D42
Procedure: (§1) The therapeutic compositions were injected subcutaneously.
(§2) The antibodies were assayed 42 days after the vaccination.
(§3) Injection of the therapeutic composition was repeated on D28. The antibodies were assayed on D42.

IgG2a = experiment: Cell response, comparison of calcium salts (Example 4); type: in vivo, OF1 mice; conditions: 0.5 mg of calcium salt, 50 μg antigen, 100 μl s.c.; injection repeated on D28; antibodies assayed on D42
Procedure: as §1, §2, §3

mice [1] = conditions: 0.5 mg of calcium salt, 50 μg antigen, 100 μl s.c.; observed during the tests of Example 4
Procedure: as §1
Each therapeutic composition, 100 μl in volume, contained 50 μg of antigen and, except for the control, 0.5 mg of a calcium salt, such that the calcium concentration of each composition was 2.7 mg.
as §3

anti-BSA antibodies = type: in vivo, OF1 mice; conditions: last dilution above background noise; for anti-BSA antibody/ primary response (D14) / anti-BSA antibody/ primary response (D28): 50 μg BSA in 100 μl s.c. on D0
Procedure: (§4) The examples were performed on OF1 mice whose average weight was between 18 and 20 g.
The results expressed are an average of the results obtained on 10 mice.
(§5) The therapeutic compositions comprised Sigma Grade V bovine serum albumin (BSA) as antigen.
as §1
The humoral immune response was determined by assay of the total IgG and of the total IgG1, according to the ELISA method.
The antibody levels mentioned in the examples correspond to the last dilution above the background noise.
Therapeutic compositions (or doses) of 100 μl each, comprising 50 μg of BSA, are prepared.
These therapeutic compositions were injected into the mice on D0 (i.e. the day of injection).
The level of anti-BSA antibodies was determined 14 and 28 days after the injection (primary response).
On D28, the same therapeutic composition was injected into the same mice.
The level of anti-BSA antibodies was determined on D42 and D56.

mice [2] = conditions: in vivo, sc
Procedure: as §4, §5, §1
A therapeutic composition 100 μl in volume, comprising 50 μg of antigen, was injected into various batches of mice each comprising 5 mice. The local reactions (lesions and granulomae) were evaluated on D8 and D35.

[3] = adjuvant 3 mg/dose, 50 μg BSA s.c. on D0, repeated on D28
[4] = adjuvant 0.5 mg/dose, 50 μg BSA s.c. on D0, repeated on D28
[5] = adjuvant 1 mg/dose, 50 μg BSA in 100 μl s.c. on D0, repeated on D28
[6] = adjuvant 2 mg/dose, 50 μg BSA s.c. on D0, repeated on D28

O=C([O-])[O-].[Ca+2] [CaCO3]
Humoral response (total IgG and total IgG1): 32,000 | Cell response (IgG2a): 4000

[Ca+2].[Cl-].[Cl-] [CaCl2]
Humoral response (total IgG and total IgG1): 64,000 | Cell response (IgG2a): 24,000 | lesions induced (mice [1]): very large lesions

O=P([O-])([O-])O.[Ca+2] [CaHPO4]
Humoral response (total IgG and total IgG1): 64,000 | Cell response (IgG2a): 10,000

O=C([O-])[C@H](O)[C@@H](O)[C@H](O)[C@H](O)CO.O=C([O-])[C@H](O)[C@@H](O)[C@H](O)[C@H](O)CO.[Ca+2] [GluCa]
anti-BSA antibody/ primary response (D14) (anti-BSA antibodies; adjuvant 3 mg/dose): 116,000 | anti-BSA antibody/ primary response (D28) (anti-BSA antibodies; adjuvant 3 mg/dose): 8000 | anti-BSA antibody/ primary response (D42) (anti-BSA antibodies; [3]): 128,000 | anti-BSA antibody/ primary response (D56) (anti-BSA antibodies; [3]): 96,000 | Humoral response (total IgG and total IgG1): 128,000 | Cell response (IgG2a): 32,000 | local reactions (D8), Mouse No. 1 (mice [2]): − | local reactions (D8), Mouse No. 2 (mice [2]): − | local reactions (D8), Mouse No. 3 (mice [2]): − | local reactions (D8), Mouse No. 4 (mice [2]): − | local reactions (D8), Mouse No. 5 (mice [2]): − | local reactions (D35), Mouse No. 1 (mice [2]): − | local reactions (D35), Mouse No. 2 (mice [2]): − | local reactions (D35), Mouse No. 3 (mice [2]): − | local reactions (D35), Mouse No. 4 (mice [2]): − | local reactions (D35), Mouse No. 5 (mice [2]): −

O=C([O-])[C@H](O)[C@@H](O)[C@H](O)[C@H](O)CO.[K+] [GluK]
local reactions (D8), Mouse No. 1 (mice [2]): − | local reactions (D8), Mouse No. 2 (mice [2]): − | local reactions (D8), Mouse No. 3 (mice [2]): − | local reactions (D8), Mouse No. 4 (mice [2]): − | local reactions (D8), Mouse No. 5 (mice [2]): − | local reactions (D35), Mouse No. 1 (mice [2]): − | local reactions (D35), Mouse No. 2 (mice [2]): − | local reactions (D35), Mouse No. 3 (mice [2]): − | local reactions (D35), Mouse No. 4 (mice [2]): − | local reactions (D35), Mouse No. 5 (mice [2]): −

O=C([O-])[C@H](O)[C@@H](O)[C@H](O)[C@H](O)CO.O=C([O-])[C@H](O)[C@@H](O)[C@H](O)[C@H](O)CO.[Zn+2] [GluZn]
anti-BSA antibody/ primary response (D14) (anti-BSA antibodies; adjuvant 0.5 mg/dose): 16,000 | anti-BSA antibody/ primary response (D28) (anti-BSA antibodies; adjuvant 0.5 mg/dose): 6000 | anti-BSA antibody/ primary response (D42) (anti-BSA antibodies; [4]): 96,000 | anti-BSA antibody/ primary response (D56) (anti-BSA antibodies; [4]): 96,000

O=C([O-])C(O)C(O)C(O)C(O)C(O)CO.O=C([O-])C(O)C(O)C(O)C(O)C(O)CO.[Zn+2] (centres unmarked) [GluhpZn]
anti-BSA antibody/ primary response (D42) (anti-BSA antibodies; [5]): 64,000 | anti-BSA antibody/ primary response (D56) (anti-BSA antibodies; [5]): 64,000 | anti-BSA antibody/ primary response (D28) (anti-BSA antibodies; adjuvant 1 mg/dose): 6000 | anti-BSA antibody/ primary response (D14) (anti-BSA antibodies; adjuvant 1 mg/dose, average of 10 mice): 8000

O=P([O-])([O-])OCC(O)CO.[Ca+2] (centres unmarked) [GlyCa]
anti-BSA antibody/ primary response (D14) (anti-BSA antibodies; adjuvant 2 mg/dose): 4000 | anti-BSA antibody/ primary response (D28) (anti-BSA antibodies; adjuvant 2 mg/dose): 2000 | anti-BSA antibody/ primary response (D42) (anti-BSA antibodies; [6]): 64,000 | anti-BSA antibody/ primary response (D56) (anti-BSA antibodies; [6]): 64,000

O=P([O-])([O-])OCC(O)CO.[Mn+2] (centres unmarked) [GlyMn]
local reactions (D8), Mouse No. 2 (mice [2]): + | local reactions (D8), Mouse No. 3 (mice [2]): ++ | local reactions (D8), Mouse No. 4 (mice [2]): + | local reactions (D8), Mouse No. 5 (mice [2]): − | local reactions (D35), Mouse No. 1 (mice [2]): − | local reactions (D35), Mouse No. 2 (mice [2]): + | local reactions (D35), Mouse No. 3 (mice [2]): + | local reactions (D35), Mouse No. 4 (mice [2]): + | local reactions (D35), Mouse No. 5 (mice [2]): +

[Cl][Mn][Cl] [MnCl^2+, reference compound]
local reactions (D8), Mouse No. 1 (mice [2]): +++ | local reactions (D35), Mouse No. 1 (mice [2]): +++
